Experiments:
[1] = pH of binding buffer when amino compounds were added; assay type: physicochemical; conditions: FIG. 11
Procedure: Change in the pH when the concentration of each of spermidine·3HCl, spermine, and 1,3-diaminopropane added to binding buffer was changed was evaluated. Binding buffer was used for a reaction buffer.

EnGen Lba Cas12a (Cpf1) = experiment: Experiment of cleavage activity of Cas12a (trans-cleavage of fluorescent reporter molecule); assay type: biochemical; conditions: for rising of fluorescence compared with no addition: addition concentration 12 mM; for addition concentration at which an effect of facilitating the reaction was observed: concentration changed between 0 to 12 mM, FIGS. 4A to 4E
Procedure: (§1) Thereafter, in a 96-well plate (137101, Thermo Fisher Scientific), binding buffer, various additives, a reporter molecule, and water were added, the total volume was adjusted to 80 μL, and the fluorescence intensity was measured every 2 min at 37° C. for 1 to 2 hours by using a fluorescent plate reader Synergy MX (BioTec). Regarding the measurement wavelength, for HiLyte488, an excitation wavelength of 485±20 nm and a fluorescence wavelength of 528±20 nm were used. For the IDT reporter, an excitation wavelength of 535±20 nm and a fluorescence wavelength of 595±20 nm were used. For a reporter marked with Cy5 or Alexa Fluor 647, an excitation wavelength of 620±20 nm and a fluorescence wavelength of 680±20 nm were used.
FIGS. 1A and 1B illustrate a change over time in the ratio of the fluorescence intensity of the IDT reporter to the fluorescence intensity of an internal standard dye Hilyte488.

[2] = biological target: Alt-R A.s. Cas12a (Cpf1) Ultra (Acidaminococcus sp., UniProt U2UMQ6, F870L/M537R); conditions: spermine 2.0 mM; NEBuffer 2.1; various concentrations of Tween 20 and BSA; FIG. 2B
Procedure: as §1, with “A ternary complex was formed by mixing 400-nM Cas12a, 500-nM crRNA, and a predetermined concentration of target DNA at a volume ratio of 1:1:2 and performing incubation at 37° C. for 30 to 60 minutes. Thereafter,” for “Thereafter,”

[3] = biological target: Alt-R A.s. Cas12a (Cpf1) Nuclease V3 (Acidaminococcus sp., UniProt U2UMQ6); conditions: spermine 2.0 mM; NEBuffer 2.1; various concentrations of Tween 20 and BSA; FIG. 2A
Procedure: as §1, with “A ternary complex was formed by mixing 400-nM Cas12a, 500-nM crRNA, and a predetermined concentration of target DNA at a volume ratio of 1:1:2 and performing incubation at 37° C. for 30 to 60 minutes. Thereafter,” for “Thereafter,”

SMILES	change in the pH of binding buffer with addition concentration [1]	rising of fluorescence compared with no addition (EnGen Lba Cas12a (Cpf1))	addition concentration at which an effect of facilitating the reaction was observed (EnGen Lba Cas12a (Cpf1)) [mM]	effect of amino compound on cleavage reaction [2]	effect of amino compound on cleavage reaction [3]	effect of amino compound on cleavage reaction of Cas12a (ratio of IDT reporter fluorescence to Hilyte488) (EnGen Lba Cas12a (Cpf1); 2.0 mM, binding buffer and NEBuffer 2.1, 0.5% Tween 20 + 0.3% BSA or 1.5% Tween + 0.6% BSA, 1 nM target DNA)	effect on cleavage reaction with respect to ten types of reporter molecules (EnGen Lba Cas12a (Cpf1); 2.0 mM, binding buffer, all reporter molecules of Table 1, FIG. 3B)	effect of facilitating the reaction (EnGen Lba Cas12a (Cpf1); 7.8 mM (FIG. 5A) or 1.4 mM (FIGS. 5B and 5C), binding buffer, IDT reporter)	cleavage activity against the reporter molecule depending on timing of addition of amino compound (EnGen Lba Cas12a (Cpf1); final 2.0 mM, conditions 1 to 6, binding buffer, FIGS. 9A to 9C)	effect of amino compound on cleavage reaction (EnGen Lba Cas12a (Cpf1); spermine 2.0 mM, NEBuffer 2.1, various concentrations of Tween 20 and BSA, FIG. 2C)
NCCCN [1,3-diaminopropane]	the pH increased with increasing the addition concentration	–	–	–	–	–	–	–	–	–
NCCCCNCCCN [spermidine]	–	the rising of fluorescence equivalent to that in the instance of no addition	≥ 0.2	–	–	–	–	–	–	–
Cl.Cl.Cl.NCCCCNCCCN [spermidine·3HCl, spermidine trihydrochloride]	the pH hardly changed	–	–	–	–	–	–	–	–	–
NCCCNCCCCNCCCN [spermine]	the pH increased with increasing the addition concentration	the rising of fluorescence was reduced compared with the instance of no addition	≤ 7.8	the reaction was facilitated	the reaction was facilitated	facilitated the reaction	the effect of facilitating the reaction by addition of the amino compound was ascertained	a high effect of facilitating the reaction	higher under condition 2, condition 4, and condition 6	the reaction was facilitated

— patent US20220170081A1, “METHOD FOR DETECTING TARGET NUCLEIC ACID AND KIT” (CANON KABUSHIKI KAISHA, priority 2020, published 2022)
